Source: PubChem BioAssay (NCI)
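Five concentrations, 48 hours, 96-well plates. The concentration for 50% growth inhibition is given as GI50. TGI: total growth inhibition.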

Assays:
Test in all cases: NCI-60 cell line screen, 48 h
[1] = system: 786-0 renal
[2] = system: A549 NSCLC
[3] = system: COLO 205 colon
[4] = system: HCC-2998 colon
[5] = system: K-562 leukemia
[6] = system: OVCAR-3 ovarian
[7] = system: PC-3 prostate
[8] = system: SF-268 CNS
[9] = system: SK-MEL-2 melanoma
[10] = system: UACC-62 melanoma

Row | Structure (SMILES) | GI50 [1] | TGI [1] | GI50 [2] | TGI [2] | GI50 [3] | TGI [3] | GI50 [4] | TGI [4] | GI50 [5] | TGI [5] | GI50 [6] | TGI [6] | GI50 [7] | TGI [7] | GI50 [8] | TGI [8] | GI50 [9] | TGI [9] | GI50 [10] | TGI [10]
1 | CC(C)(C)c1nn(-c2ccccc2)c2c1C(=O)CSC(c1ccccc1Cl)N2 (stereo not given) | 3.32 µM | 15.1 µM | 1.67 µM | 14 µM | 2.51 µM | 6.01 µM | 2.08 µM | 7.51 µM | 0.583 µM | 14.9 µM | 1.37 µM | 6.37 µM | 1.62 µM | 16.5 µM | 2.76 µM | 18.5 µM | 2.1 µM | 13.4 µM | 0.775 µM | 15 µM
2 | Nc1c(Br)cc(Br)c2c1[nH]c(=O)c1ccccc12 | 2.72 µM | 7.83 µM | 6.7 µM | > 100 µM | 22.1 µM | > 100 µM | > 100 µM | > 100 µM | 37.3 µM | > 100 µM | 11.5 µM | 43.4 µM | 14.4 µM | > 100 µM | 9.72 µM | > 69.3 µM | 20.7 µM | 60.3 µM | 46.8 µM | > 100 µM
3 | O=NNc1ccc(S(=O)(=O)c2ccccc2)cn1 | – | > 100 µM | – | > 100 µM | – | > 100 µM | – | > 100 µM | – | > 100 µM | – | > 100 µM | – | > 100 µM | – | > 100 µM | – | > 100 µM | – | > 100 µM
4 | CCC(CO)Nc1nc(NCc2ccccc2O)c2ncn(C(C)C)c2n1 (stereo not given) | 4.46 µM | > 100 µM | 4.03 µM | > 100 µM | 1.95 µM | 3.89 µM | 0.215 µM | 6.98 µM | 0.628 µM | 16.4 µM | 3.1 µM | 19.8 µM | 5.67 µM | 30.8 µM | 2.55 µM | 13 µM | 1.79 µM | 5.83 µM | 2.3 µM | 12.5 µM
5 | Cn1c(/C=C(\C#N)c2ccccc2)nc2c(N3CCOCC3)nc(Cl)nc21 | 1.56 µM | 3.05 µM | 1.53 µM | 4.03 µM | 1.34 µM | 2.93 µM | 1.82 µM | 3.33 µM | 0.348 µM | 3.46 µM | 0.673 µM | 1.88 µM | 0.849 µM | 2.99 µM | 1.55 µM | 3.15 µM | 1.62 µM | 3.18 µM | 1.19 µM | 2.52 µM
6 | COC1CC2CCC(C)C(O)(O2)C(=O)C(=O)N2CCCCC2C(=O)OC(C(C)CC2CCC(O)C(OC)C2)CC(=O)C(C)C=C(C)C(O)C(OC)C(=O)C(C)CC(C)/C=C/C=C/C=C1C (stereo not given) | 5.48 µM | 17.3 µM | 0.0784 µM | 41.6 µM | 5.64 µM | 12.9 µM | 0.263 µM | 11.4 µM | 4.94 µM | 32.3 µM | 4.49 µM | 10.9 µM | < 0.005 µM | 13 µM | 3.82 µM | 11.5 µM | 5.19 µM | 12.3 µM | 0.0265 µM | 11.6 µM
7 | Cc1c(-c2c(-c3ccc(F)o3)sc3ncnc(O[C@H](Cc4ccccc4OCc4ccnn4CC(F)(F)F)C(=O)O)c23)ccc(OCCN2CCN(C)CC2)c1Cl | 3.97 µM | 8.33 µM | 13.4 µM | 26.9 µM | 4.29 µM | 9.26 µM | 3.48 µM | 7.57 µM | 3.71 µM | 14.5 µM | 3.82 µM | 7.67 µM | 3.16 µM | 7.28 µM | 4.46 µM | 11.4 µM | 0.03 µM | 0.097 µM | 0.249 µM | 3.13 µM
8 | C/C(=N/Nc1nc2ccccc2n1C)c1ccccn1 | 0.0638 µM | 10.6 µM | 0.106 µM | 14.5 µM | 0.0254 µM | 10.9 µM | 0.493 µM | 15.6 µM | 0.0173 µM | > 100 µM | < 0.0153 µM | 14.1 µM | 0.0369 µM | 36 µM | 0.202 µM | > 35.6 µM | 0.706 µM | 22.3 µM | 0.14 µM | 0.793 µM
9 | O=C1NC(O)C(c2c[nH]c3ccccc23)=C1c1c[nH]c2ccccc12 (stereo not given) | > 25 µM | > 25 µM | > 25 µM | > 25 µM | > 25 µM | > 25 µM | > 25 µM | > 25 µM | > 21.9 µM | > 25 µM | > 25 µM | > 25 µM | 24.8 µM | > 25 µM | > 25 µM | > 25 µM | > 25 µM | > 25 µM | 8.01 µM | > 25 µM
10 | O=C(CN1CCN(CCCOc2c(-c3ccccc3)oc3ccccc3c2=O)CC1)Nc1ccc(Cl)cc1C(=O)c1ccccc1Cl | 5.58 µM | 19.4 µM | 6.37 µM | > 100 µM | 13.4 µM | 30.2 µM | 2.26 µM | 4.23 µM | 4.18 µM | > 100 µM | 5.79 µM | 19.5 µM | 3.18 µM | 21.4 µM | 23.2 µM | > 100 µM | 12.5 µM | 31 µM | 12.3 µM | 26.3 µM
11 | COc1ccc2c(=O)c3ccoc3n(CC=C(C)C)c2c1 | – | > 100 µM | – | > 100 µM | – | > 100 µM | – | > 100 µM | – | > 100 µM | – | > 100 µM | – | > 100 µM | – | > 100 µM | – | > 100 µM | – | > 100 µM
12 | COc1ccc(/C=C/C(=O)c2ccc(SC)cc2)cc1OC | 12.5 µM | 26.6 µM | 15.8 µM | 42.7 µM | 21 µM | > 100 µM | 3.27 µM | 12.1 µM | 4.09 µM | 33.8 µM | 2.12 µM | 6.47 µM | 11.5 µM | 25.6 µM | 22.3 µM | 63.8 µM | 19.4 µM | 42.6 µM | 12.7 µM | 27.1 µM
13 | CC(C)[C@H](CO)Nc1nc(Nc2ccc(C(=O)NCCNS(=O)(=O)c3cccc4c(N(C)C)cccc34)c(Cl)c2)c2ncn(C(C)C)c2n1 | 3.15 µM | > 100 µM | 2.91 µM | > 77.7 µM | 1.76 µM | 3.47 µM | 2.9 µM | > 100 µM | 3.92 µM | > 100 µM | 2.65 µM | > 66.9 µM | 3.56 µM | > 100 µM | 2.47 µM | 34.2 µM | 2.67 µM | 7.73 µM | 3.4 µM | > 100 µM
14 | COC(=O)c1c2c(c(C)[n+]([O-])c1C)C(=O)C=C(NCc1ccc(F)c(Cl)c1)C2=O | 1.13 µM | 3.6 µM | 0.352 µM | 1.95 µM | 0.245 µM | 0.863 µM | 0.187 µM | 1.41 µM | 0.0315 µM | 5.27 µM | 0.201 µM | 0.628 µM | 0.245 µM | 4.02 µM | 1.01 µM | 2.81 µM | 0.677 µM | 2.5 µM | 0.0325 µM | 0.662 µM
15 | O=C1CCCCCCCC/C=C\CC(c2ccco2)O1 (stereo not given) | 21.4 µM | 70.3 µM | 46 µM | > 100 µM | 31.6 µM | > 100 µM | > 100 µM | > 100 µM | 23.5 µM | 73.8 µM | 32.2 µM | > 100 µM | 36.3 µM | > 100 µM | 30.8 µM | > 100 µM | 21.6 µM | 58.4 µM | 14.6 µM | 68.9 µM
16 | C=CC(=O)N1CCN(c2nc(=O)n(-c3c(C)ccnc3C(C)C)c3nc(-c4c(O)cccc4F)c(F)cc23)[C@@H](C)C1 | 14.7 µM | 36.3 µM | > 46.5 µM | > 77.2 µM | 39.9 µM | > 100 µM | 19.1 µM | 35.9 µM | 23.2 µM | > 85 µM | 30.1 µM | > 86 µM | 31.8 µM | > 96.3 µM | 35.6 µM | > 100 µM | 31 µM | > 78 µM | 28.4 µM | > 73.6 µM
17 | COc1ccc(-n2nnnc2-c2c[nH]c3c(F)cc(F)cc23)cc1 | 31.5 µM | > 100 µM | > 100 µM | > 100 µM | > 100 µM | > 100 µM | > 100 µM | > 100 µM | > 100 µM | > 100 µM | > 100 µM | > 100 µM | > 100 µM | > 100 µM | 40.3 µM | > 100 µM | > 100 µM | > 100 µM | > 100 µM | > 100 µM
18 | O=C(/C=C/c1cccnc1)NCCCCC1CCCN(C(=O)c2ccccc2)C1 (stereo not given) | > 64.3 µM | > 100 µM | 0.0752 µM | > 100 µM | 0.75 µM | > 100 µM | 0.974 µM | > 100 µM | < 0.01 µM | > 100 µM | > 47.9 µM | > 100 µM | 1.47 µM | > 100 µM | > 28.4 µM | > 100 µM | 5.71 µM | > 100 µM | > 90.6 µM | > 100 µM
19 | COc1cc(C)c(Cl)cc1C1=NN(c2ccc(S(N)(=O)=O)cc2)C(/C=C/c2ccccc2)C1 (stereo not given) | 3.67 µM | 11.9 µM | 3.31 µM | 19.3 µM | 1.76 µM | 3.33 µM | 2.57 µM | 8.49 µM | 5.29 µM | > 100 µM | 2.61 µM | 6.46 µM | 3.11 µM | 13.8 µM | 4.4 µM | > 100 µM | 3.24 µM | 8.75 µM | 3.77 µM | 19.4 µM
20 | CCCc1cc2c(=O)c(C(=O)OC)c[nH]c2cc1N(CC)CC | 19.6 µM | 39.8 µM | 38.3 µM | > 100 µM | 46.5 µM | > 100 µM | 76.3 µM | > 100 µM | 80.5 µM | > 100 µM | 16.4 µM | 38.3 µM | 23.3 µM | > 100 µM | 28.6 µM | 87.6 µM | 36.1 µM | 97.8 µM | > 100 µM | > 100 µM
